The record followed here is ChEMBL document CHEMBL4828751, “Discovery of novel tubulin/HDAC dual-targeting inhibitors with strong antitumor and antiangiogenic potency” (Eur J Med Chem, 2021).

By IC50 is commonly meant the concentration needed to halve the response being measured.

Molecules are shown by their SMILES. Where only a bound is given, the exact number is not on record here.

Common to all, as to assay type: functional, cell-based
For one assay, the system named is U-937. As to the kind of experiment: Antiproliferative activity against human U-937 cells assessed as cell growth inhibition after 72 hrs by CCK8 assay. The settings on record: U-937, 72 h. On the technique in general: Tetrazolium assays rely on reduction of a dye to a coloured formazan, in cell work by metabolically active cells.
Another assay has as its system A549. As to the kind of experiment: Antiproliferative activity against human A549 cells assessed as cell growth inhibition after 72 hrs by SRB assay. The settings on record: A549, 72 h. (The SRB assay estimates cell density from bound dye.)
For the next assay, the system named is MGC-803. As to the kind of experiment: Antiproliferative activity against human MGC-803 cells assessed as cell growth inhibition after 72 hrs by SRB assay. The conditions noted are these: MGC-803, 72 h.
For the next assay, the system named is HepG2. As to the kind of experiment: Antiproliferative activity against human HepG2 cells assessed as cell growth inhibition after 72 hrs by SRB assay. The conditions noted are these: HepG2, 72 h.
In a further assay the test system is MCF7. As to the kind of experiment: Antiproliferative activity against human MCF7 cells assessed as cell growth inhibition after 72 hrs by SRB assay. The settings on record: MCF7, 72 h.
A further assay concerns HeLa. As to the kind of experiment: Antiproliferative activity against human HeLa cells assessed as cell growth inhibition after 72 hrs by SRB assay.

Turning to `COc1ccc(C(=O)c2cc(OC)c(OC)c(OC)c2)cc1Oc1ccc(C(=O)Nc2ccccc2N)cc1`, the IC50 with U-937, in the assay on A549, in the assay with MGC-803, with HepG2, in the assay with MCF7 and in the assay with HeLa was more than 5 µM each time.
Take `COc1ccc(/C=C\c2cc(OC)c(OC)c(OC)c2)c(/C=C/C(=O)NO)c1`: the IC50 in the assay with U-937 amounted to 0.995 µM; in the assay with A549, 2.23 µM; with MGC-803, 0.146 µM; with HepG2, 0.164 µM; with MCF7, 0.641 µM; in the assay with HeLa, 0.061 µM.
On to `COc1ccc(C(=O)c2cc(OC)c(OC)c(OC)c2)cc1OCCCC(=O)NO`, for which the concentration for half-maximal inhibition (IC50) in the assay with U-937, in the assay with A549, in the assay on MGC-803, with HepG2, in the assay on MCF7 and in the assay on HeLa was more than 5 µM throughout.
Regarding `COc1ccc(C(=O)c2cc(OC)c(OC)c(OC)c2)cc1OCCCC(=O)Nc1ccccc1N`, the concentration for half-maximal inhibition (IC50) in the assay on U-937, in the assay with A549, in the assay on MGC-803, in the assay on HepG2, in the assay with MCF7 and with HeLa was more than 5 µM in each case.
For the molecule `COc1ccc(C(=O)c2cc(OC)c(OC)c(OC)c2)cc1Oc1ccc(C(=O)Nc2ccccc2N)cn1`, the IC50 in the assay on U-937, with A549, in the assay on MGC-803, with HepG2, in the assay on MCF7 and with HeLa was more than 5 µM in each case.
In the case of `COc1ccc(C(=O)c2cc(OC)c(OC)c(OC)c2)cc1OCCCCC(=O)Nc1ccccc1N`, the IC50 with U-937, in the assay on A549, in the assay on MGC-803, with HepG2, with MCF7 and in the assay on HeLa was more than 5 µM each time.
With `COc1ccc(/C=C\c2cc(OC)c(OC)c(OC)c2)cc1OCc1ccc(C(=O)Nc2ccccc2N)cc1`, the 50% inhibitory concentration (IC50) in the assay on U-937 is 1.79 µM; in the assay on A549, 2.21 µM; in the assay with MGC-803, 0.604 µM; in the assay with HepG2 it was 3.41 µM; in the assay on MCF7, 1.47 µM; in the assay on HeLa it was 2.21 µM.
With `COc1ccc(/C=C\c2cc(OC)c(OC)c(OC)c2)cc1OCCCCC(=O)NO`, the half-inhibitory concentration (IC50) amounted to 3.32 µM in the assay on U-937; 4.81 µM with A549; 1.13 µM in the assay with MGC-803; 3.56 µM in the assay with HepG2; 2.81 µM in the assay with MCF7; 0.189 µM in the assay with HeLa.
With `COc1ccc(C(=O)c2cc(OC)c(OC)c(OC)c2)cc1OCCCCC(=O)NO`, the half-inhibitory concentration (IC50) with U-937, with A549, in the assay with MGC-803, with HepG2, in the assay on MCF7 and in the assay with HeLa was more than 5 µM throughout.
Regarding `COc1ccc(/C=C\c2cc(OC)c(OC)c(OC)c2)cc1Oc1ccc(C(=O)Nc2ccccc2N)cc1`, the IC50 is 4.33 µM in the assay with U-937; more than 5 µM in the assay with A549; 1.36 µM with MGC-803; 4.7 µM in the assay with HepG2; 1.57 µM with MCF7; more than 5 µM with HeLa.
Regarding `COc1ccc(/C=C\c2cc(OC)c(OC)c(OC)c2)c(/C=C/C(=O)Nc2ccccc2N)c1`, the IC50 in the assay on U-937 stood at 3.75 µM; in the assay with A549, 4.69 µM; in the assay with MGC-803 it was 0.301 µM; with HepG2, 2.76 µM; in the assay with MCF7, 2.12 µM; with HeLa it was 1.96 µM.
Turning to `COc1ccc(C(=O)c2cc(OC)c(OC)c(OC)c2)cc1OCc1ccc(C(=O)Nc2ccccc2N)cc1`, the IC50 with U-937, with A549, in the assay with MGC-803, with HepG2, in the assay on MCF7 and in the assay with HeLa was more than 5 µM in each case.
As for `COc1ccc(/C=C\c2cc(OC)c(OC)c(OC)c2)cc1Oc1ccc(C(C)(C)C(=O)Nc2ccccc2N)cc1`, the half-inhibitory concentration (IC50) with U-937, in the assay on A549, in the assay with MGC-803, with HepG2, in the assay on MCF7 and in the assay on HeLa was more than 5 µM each time.
As to `COc1ccc(/C=C\c2cc(OC)c(OC)c(OC)c2)cc1/C=C/C(=O)NO`, the IC50 worked out at 0.805 µM in the assay with U-937; 0.254 µM with A549; 0.208 µM in the assay on MGC-803; 0.252 µM in the assay with HepG2; 0.158 µM in the assay with MCF7; 0.257 µM in the assay on HeLa.
For `COc1ccc(C(=O)c2cc(OC)c(OC)c(OC)c2)cc1OCc1ccc(C(=O)NO)cc1`, the IC50 in the assay on U-937, in the assay on A549, in the assay on MGC-803, in the assay on HepG2, with MCF7 and with HeLa was more than 5 µM in each case.
Consider `COc1ccc(/C=C\c2cc(OC)c(OC)c(OC)c2)cc1Oc1ccc(C(=O)NO)cc1`, for which the IC50 in the assay with U-937 is 3.5 µM; with A549, 1.47 µM; with MGC-803, 0.927 µM; in the assay on HepG2, 4.55 µM; with MCF7 it was 1.47 µM; in the assay with HeLa, 1.47 µM.
On to `COc1ccc(C(=O)c2cc(OC)c(OC)c(OC)c2)cc1/C=C/C(=O)Nc1ccccc1N`, for which the 50% inhibitory concentration (IC50) in the assay with U-937 stood at 2.25 µM; with A549, 3.21 µM; with MGC-803 it was 1.1 µM; in the assay with HepG2 it was 1.17 µM; with MCF7 it was 0.828 µM; with HeLa, 1.18 µM.
As for `COc1ccc(C(=O)c2cc(OC)c(OC)c(OC)c2)c(/C=C/C(=O)Nc2ccccc2N)c1`, the IC50 in the assay on U-937 was 1.68 µM; in the assay on A549 it was 3.21 µM; in the assay with MGC-803, 1.61 µM; in the assay on HepG2 it was 1.56 µM; in the assay with MCF7, 1.18 µM; in the assay with HeLa it was 1.04 µM.
`COc1ccc(/C=C\c2cc(OC)c(OC)c(OC)c2)cc1Oc1ccc(C(=O)NO)cn1`: the IC50 with U-937 is 3.32 µM; in the assay with A549, 2.44 µM; with MGC-803, 1.09 µM; in the assay with HepG2, more than 5 µM; in the assay on MCF7, 0.485 µM; in the assay on HeLa, 2.44 µM.
For the molecule `COc1ccc(/C=C\c2cc(OC)c(OC)c(OC)c2)cc1OCC(=O)NO`, the IC50 is more than 5 µM in the assay with U-937; 0.285 µM with A549; 0.013 µM in the assay on MGC-803; 0.122 µM in the assay on HepG2; 0.419 µM in the assay with MCF7; 0.064 µM in the assay on HeLa.
As to `COc1ccc(/C=C\c2cc(OC)c(OC)c(OC)c2)cc1Oc1ccc(C(C)(C)C(=O)NO)cc1`, the IC50 in the assay with U-937, in the assay on A549, in the assay with MGC-803, with HepG2, in the assay with MCF7 and in the assay on HeLa was more than 5 µM throughout.
For `COc1ccc(C(=O)c2cc(OC)c(OC)c(OC)c2)cc1OCC(=O)Nc1ccccc1N`, the IC50 is 0.758 µM in the assay on U-937; more than 5 µM with A549; more than 5 µM in the assay with MGC-803; more than 5 µM with HepG2; more than 5 µM in the assay with MCF7; more than 5 µM in the assay with HeLa.
Consider `COc1ccc(/C=C\c2cc(OC)c(OC)c(OC)c2)cc1OCCCCC(=O)Nc1ccccc1N`, for which the IC50 in the assay on U-937, with A549, in the assay on MGC-803, in the assay with HepG2, with MCF7 and in the assay with HeLa was more than 5 µM in each case.
